# Values of other authors, collected in US20240065974A1, “ORAL THIN FILM” (LTS Lohmann Therapie-Systeme AG, priority 2021, published 2024).
# Details: compared with (R)-ketamine
smiles,measurement,value
"CNC1(c2ccccc2Cl)CCCCC1=O (racemic) [(S)-ketamine, (S)-(±)-2-(2-chlorophenyl)-2-(methylamino)cyclohexan-1-one]",Analgesic and anaesthetic potency relative to the (R) form,approximately three times higher
